# According to publication PMC11172478, “1,3,5-Triazine as Branching Connector for the Construction of Novel Antimicrobial Peptide Dendrimers: Synthesis and Biological Characterization” (International Journal of Molecular Sciences, 2024):
# Residues, ends and D or L forms follow the SMILES beside them. *: point of attachment. βNA = c1ccc2cc(N*)ccc2c1
# Legend:
# [1] = system: E. coli 208691; experiment: Intracellular accumulation of acridine orange; format: cell-based; conditions: AO 0.25 µg/mL, 30 min
# Method: (§1) The assay was performed as previously described by Armengol et al. including control and clinical strains (E. coli 208691 and P. aeruginosa 666 SJD) previously studied by our group. Briefly, 96-well flat-bottomed microtiter plates (Guangzhou Jet Bio-Filtration Co., Ltd., Mianyang, China) were used. Overnight cultures were diluted in 1/4 Ringer’s solution to an OD520nm of 1.5, and 100 µL was added to the wells previously filled with 100 µL of Ringer’s solution. Acridine Orange (AO) was added to a final concentration of 0.25 µg/mL. The inoculated plates were then incubated for 30 min with shaking, after which the fluorescence was measured in a FLUOstar OPTIMA fluorescence microplate reader (BMG Labtech, Ortenberg, Germany).
# (§2) To determine the uptake and accumulation of AO by bacteria, different scenarios were compared. First, bacteria were examined in the presence of PAβN at 20 µg/mL, and then in the presence of different concentrations of the dendrimers at (MIC, ½ MIC, ¼ MIC). The results in each condition were expressed as the percentage increase in fluorescence with respect to the control.
# [2] = system: P. aeruginosa ATCC 27853; experiment: Intracellular accumulation of acridine orange; format: cell-based
# Method: as §1, §2
# [3] = system: P. aeruginosa 666 SJD; experiment: Intracellular accumulation of acridine orange; format: cell-based; conditions: PaβN 20 µg/mL, AO 0.25 µg/mL, 30 min, fluorescence
# Method: as §1, §2
# [4] = system: P. aeruginosa ATCC 27853; experiment: Bacterial growth curves; format: cell-based; conditions: P. aeruginosa ATCC 27853, TSB, MIC, ½ MIC and ¼ MIC, 24 h, 37 °C, OD 850 nm
# Method: (§3) The real-time effect of the peptide dendrimers was examined on the growth curves of E. coli ATCC 25922 and P. aeruginosa ATCC 27853. Volumes of 10 mL of TSB liquid cultures containing 1–5 × 10^5 CFU/mL in the logarithmic phase were adjusted in Falcon tubes. Peptide dendrimers were then added at MIC and sub-inhibitory concentrations (½ MIC and ¼ MIC). Incubation was performed in RTS-1C real-time reverse spin bioreactors RTS-1 (Biosan) for 24 h at 37 °C and 2000 rpm. Growth was measured noninvasively as optical density (OD 850 nm) every 15 min.
# [5] = system: E. coli ATCC 25922; experiment: Atomic force microscopy of treated bacteria; format: cell-based; conditions: E. coli ATCC 25922, dendrimer at MIC, 4 h, 37 °C
# Method: E. coli ATCC 25922 was grown at 37 °C in Mueller Hinton cation-adjusted broth to an optical density of 0.25 at 625 nm. Dendrimers were added to a starting inoculum of 10^6 CFU/mL and incubated for 4 h at 37 °C with shaking. Untreated E. coli was included as a control. Cells in 1 mL of culture were centrifuged at 5000 rpm for 5 min and washed three times with 1 mL of sterile water. The bacterial cells were then resuspended in 100 µL of sterile water and a 10 µL drop was applied to a freshly cleaved mica surface and allowed to dry for approximately 10 min at room temperature.
# The disk surfaces were analyzed by atomic force microscopy using an AFM XE-70 (Park Systems, Suwon, Korea) in non-contact mode with an ACTA 10M cantilever. […] The AFM images were processed using a scanning probe image processor XEI (Park Systems), correcting the plane of the AFM image for any coupling of the lateral plane and the z-axis caused by the instrument.
# [6] = system: E. coli ATCC 25922; format: cell-based; conditions: broth microdilution, MHBCA, 24 h, 37 °C, visual turbidity
# Method: (§4) The antimicrobial activity of the dendrimers was evaluated against E. coli ATCC 25922, P. aeruginosa ATCC 27853 and S. aureus ATCC 29213 strains. The MIC values were determined by the broth microdilution method. Briefly, the different strains were grown in Muller Hinton broth cation adjusted (MHBCA) medium overnight at 37 °C with shaking at 200 rpm. The bacterial cultures were then adjusted to OD625nm of 0.08–0.1, and 5 μL of each diluted suspension was added to 96-well plates previously filled with MHBCA and serially diluted peptides. Plates were incubated for 24 h at 37 °C. Finally, the MIC was determined macroscopically, based on the visual turbidity of the wells.
# [7] = system: P. aeruginosa ATCC 27853; format: cell-based; conditions: broth microdilution, MHBCA, 24 h, 37 °C, visual turbidity
# Method: as §4
# [8] = system: S. aureus ATCC 29213; format: cell-based; conditions: broth microdilution, MHBCA, 24 h, 37 °C, visual turbidity
# Method: as §4
# [9] = system: P. aeruginosa ATCC 27853; experiment: Time-kill curves; format: cell-based; conditions: P. aeruginosa ATCC 27853, ½ MIC
# Method: The death kinetics of the active dendrimers were examined by plotting their time-kill curves against E. coli ATCC 25922 and P. aeruginosa ATCC 27853. The dendrimers were added to a starting bacterial inoculum of 10^6 CFU/mL in 5 mL of MHBCA medium. Dendrimers were tested at three different concentrations: MIC, ½ MIC and ¼ MIC. They were incubated for 24 h at 37 °C with shaking at 200 rpm. Samples were aseptically collected at 0, 1, 2, 4 and 6 h, serially diluted in Ringer ¼ and plated on Tryptone soy agar for colony counting.
# The response of the microbial strains to the dendrimers was determined based on a logarithmic decrease in viable bacteria. A compound was considered active if it caused a reduction of ≥1 log10 CFU/mL, compared to the corresponding counts at time 0 h. In addition, a dendrimer was considered bactericidal if it caused a reduction of ≥3 log10 CFU/mL [40].
# [10] = Black lipid bilayers conductance; conditions: DiPhPC/PS 4:1 in n-decane, 1 M KCl, −80, −120 and −180 mV
# Method: The basic methods have been described previously. Membranes were prepared from 1% lipid a mixture of di-phytanoyl-phosphatidylcholine/di-phytanoylphosphatidylserine (DiPhPC/PS) in a molar ratio of 4:1 in n-decane (Avanti Polar Lipids, Delfzyl, The Netherlands). Bilayers were painted over a 2 mm^2 hole in a Teflon divider separating two compartments containing 5 mL each of a bathing solution of 1MKCl. Voltages were applied across the membrane via calomel electrodes connected by a salt bridge. The resultant current was amplified 10^8-fold by a current amplifier and recorded on a Rikadenski chart recorder. A concentration of 1 μg/mL of the dendrimer was used based on the results of Wu et al..
# [11] = system: E. coli ATCC 25922; format: cell-based
# Method: as §3
compound,measurement,setting,value
"NC(N)=NCCC[C@H](NC(=O)[C@@H](N)Cc1ccccc1)C(=O)Nc1ccc2ccccc2c1 [PaβN, reference compound] (H-Phe-Arg-βNA)",AO accumulation (untreated control = 100%),"[1]; E. coli 208691, PaβN 20 µg/mL, fluorescence",≥ 140%
same,changes in AO accumulation by susceptible strains (in words),"[2]; susceptible strains, PaβN 20 µg/mL",almost negligible
same,AO accumulation (untreated control = 100%),[3],≥ 140%
H-[(LK)3-EDA]4-(TA-EDA)2-TA-(LK)3-NH2 [Dendrimer 3],effect on growth curve (in words),[4],complete growth inhibition occurred at the MIC
same,bacterial surface alteration by AFM (in words),[5],significant surface damages
same,MIC E. coli ATCC 25922,[6],8 µg/mL
same,MIC P. aeruginosa ATCC 27853,[7],32 µg/mL
same,MIC S. aureus ATCC 29213,[8],>64 µg/mL
same,AO accumulation (in words),"[1]; E. coli 208691, dendrimers at MIC, ½ MIC, ¼ MIC","increase in the AO accumulation with clear differences between the MIC, ½ MIC and ¼ MIC"
same,AO accumulation (in words),"[2]; P. aeruginosa ATCC 27853, dendrimers at MIC",slight increase in AO accumulation
same,time-kill activity at ½ MIC (in words),[9],higher antimicrobial activity than dendrimer 1
same,channel formation in planar lipid bilayers (conductance),[10],did not induce membrane channels
same,effect on growth curve (in words),"[11]; E. coli ATCC 25922, TSB, MIC, ½ MIC and ¼ MIC, 24 h, 37 °C, OD 850 nm",inhibited the growth at the MIC and ½ MIC
same,delay in the onset of detectable turbidity,"[11]; E. coli ATCC 25922, at concentrations lower than ½ MIC",10 h
same,prolongation of lag phase,"[11]; E. coli ATCC 25922, at ¼ MIC",6 h
same,concentration that completely inhibited detectable growth,"[11]; E. coli ATCC 25922, growth curves, 24 h",4 µg/mL
